Results reported in US6031084A, “Azoamide compound” (Wako Pure Chemical Industries, Ltd., priority 1998, dated 2000).

How the values were obtained:
[1] = Measurement of Solubility in various kinds of polar solvents; format: physicochemical; settings: for Solubility in 2-butanol: solvent: 2-butanol; for Solubility in Acetone: solvent: Acetone; for Solubility in Methanol: solvent: Methanol; for Solubility in Tetrahydrofuran: solvent: Tetrahydrofuran; for Solubility in Water: solvent: Water
Protocol: Solubilities of 2,2'-azobis[N-(butanol-2-yl)-2-methylpropionamide] (hereinafter abbreviated as Present compound 1) obtained by Example 1 and 2,2'-azobis[N-(propanol-2-yl)-2-methylpropionamide] (hereinafter abbreviated as Present compound 2) obtained by Example 2 to various kinds of polar solvent was measured.
The same measurement of solubility as Experiment 1 was conducted except for using of 2,2'-azobis[2-methyl-N-(2-hydroxyethyl)-propionamide] [drawing 9] (hereinafter abbreviated as Known compound 1), 2,2'-azobis {2-methyl-N-[1,1-bis(hydroxymethyl)-2-hydroxyethyl] propionamide} [drawing 10] (hereinafter abbreviated as Known compound 2) and 2,2'-azobis {2-methyl-N-[1,1-bis(hydroxymethyl)ethyl] propionamide} [drawing 11] (hereinafter abbreviated as Known compound 3) in place of Present compound 1.

[2] = 10 hours half life temperature (thermal decomposition); format: physicochemical

SMILES | Solubility in a various kind of polar solvents compared with Known compounds 1, 2 and 3 (in words) [1] | Solubility in rather low polar solvents such as 2-butanol (in words) [1] | Solubility in 2-butanol [1] | Solubility in Acetone [1] | Solubility in Methanol [1] | Solubility in Tetrahydrofuran [1] | Solubility in Water [1] | 10 hours half life temperature [2]
CC(CO)NC(=O)C(C)(C)N=NC(C)(C)C(=O)NC(C)CO (racemic) [Present compound 2, 2,2'-azobis[N-(propanol-2-yl)-2-methylpropionamide]] | remarkably higher | soluble | < 0.l | 0.3 g | 6.5 g | 0.3 g | 0.6 g | 83.1 °C
CC(C)(N=NC(C)(C)C(=O)NCCO)C(=O)NCCO [Known compound 1, 2,2'-azobis[2-methyl-N-(2-hydroxyethyl)-propionamide]] |  |  | insoluble | insoluble | 4.55 g | insoluble | 2.4 g | 
CC(C)(N=NC(C)(C)C(=O)NC(CO)(CO)CO)C(=O)NC(CO)(CO)CO [Known compound 2, 2,2'-azobis {2-methyl-N-[1,1-bis(hydroxymethyl)-2-hydroxyethyl]propionamide}] |  |  | insoluble | insoluble | 1.89 g | insoluble | 2.0 g | 
CC(CO)(CO)NC(=O)C(C)(C)N=NC(C)(C)C(=O)NC(C)(CO)CO [Known compound 3, 2,2'-azobis {2-methyl-N-[1,1-bis(hydroxymethyl)ethyl]propionamide}] |  |  | insoluble | insoluble | 5.18 g | insoluble | 0.6 g | 
CC[C@H](CO)NC(=O)C(C)(C)N=NC(C)(C)C(=O)N[C@H](CC)CO [Present compound 1, 2,2'-azobis[N-(butanol-2-yl)-2-methylpropionamide]] | remarkably higher | soluble | > 10 g | > 10 g | > 10 g | > 10 g | > 10 g | 84.7 °C
